Columns and labels:
MCF7 [1] = assay: Growth inhibition of human MCF7 cells assessed as cell growth at 1 uM incubated for 48 hrs by sulforhodamine B assay relative to control; format: functional; conditions: MCF7, 48 h, read-out: Activity
OVCAR-4 = assay: Growth inhibition of human OVCAR4 cells assessed as cell growth at 0.01 uM incubated for 48 hrs by sulforhodamine B assay relative to control; format: functional; conditions: OVCAR-4, 48 h, read-out: Activity
786-0 = assay: Growth inhibition of human 786-0 cells assessed as cell growth at 0.01 uM incubated for 48 hrs by sulforhodamine B assay relative to control; format: functional; conditions: 786-0, 48 h, read-out: Activity
Hs-578T [2] = assay: Growth inhibition of human Hs578T cells incubated for 48 hrs by sulforhodamine B assay; format: functional, cell-based
Hs-578T [3] = assay: Growth inhibition of human Hs578T cells assessed as cell growth at 0.1 uM incubated for 48 hrs by sulforhodamine B assay relative to control; format: functional; conditions: read-out: Activity
UO-31 = assay: Growth inhibition of human UO31 cells assessed as cell growth at 0.01 uM incubated for 48 hrs by sulforhodamine B assay relative to control; format: functional; conditions: UO-31, 48 h, read-out: Activity
MDA-MB-468 = assay: Growth inhibition of human MDA-MB-468 cells assessed as cell growth at 0.1 uM incubated for 48 hrs by sulforhodamine B assay relative to control; format: functional; conditions: MDA-MB-468, 48 h, read-out: Activity
SN12C = assay: Growth inhibition of human SN12C cells assessed as cell growth at 0.01 uM incubated for 48 hrs by sulforhodamine B assay relative to control; format: functional; conditions: read-out: Activity
MCF7 [4] = assay: Growth inhibition of human MCF7 cells assessed as cell growth at 100 uM incubated for 48 hrs by sulforhodamine B assay relative to control; format: functional; conditions: MCF7, 48 h, read-out: Activity
NCI-H322M = assay: Growth inhibition of human NCI-H322M cells assessed as cell growth at 0.1 uM incubated for 48 hrs by sulforhodamine B assay relative to control; format: functional; conditions: read-out: Activity
NCI-H23 [5] = assay: Growth inhibition of human NCI-H23 cells assessed as cell growth at 100 uM incubated for 48 hrs by sulforhodamine B assay relative to control; format: functional; conditions: NCI-H23, 48 h, read-out: Activity
CAKI-1 [6] = assay: Growth inhibition of human Caki1 cells assessed as cell growth at 0.1 uM incubated for 48 hrs by sulforhodamine B assay relative to control; format: functional; conditions: CAKI-1, 48 h, read-out: Activity
SK-OV-3 = assay: Growth inhibition of human SKOV3 cells assessed as cell growth at 0.01 uM incubated for 48 hrs by sulforhodamine B assay relative to control; format: functional; conditions: SK-OV-3, 48 h, read-out: Activity
NCI-H226 = assay: Growth inhibition of human NCI-H226 cells assessed as cell growth at 0.01 uM incubated for 48 hrs by sulforhodamine B assay relative to control; format: functional; conditions: NCI-H226, 48 h, read-out: Activity
MCF7 [7] = assay: Growth inhibition of human MCF7 cells assessed as cell growth at 0.1 uM incubated for 48 hrs by sulforhodamine B assay relative to control; format: functional; conditions: MCF7, 48 h, read-out: Activity
SF-268 = assay: Growth inhibition of human SF268 cells assessed as cell growth at 0.01 uM incubated for 48 hrs by sulforhodamine B assay relative to control; format: functional; conditions: SF-268, 48 h, read-out: Activity
IGROV-1 = assay: Growth inhibition of human IGROV1 cells assessed as cell growth at 0.1 uM incubated for 48 hrs by sulforhodamine B assay relative to control; format: functional; conditions: IGROV-1, 48 h, read-out: Activity
NCI-H23 [8] = assay: Growth inhibition of human NCI-H23 cells assessed as cell growth at 0.01 uM incubated for 48 hrs by sulforhodamine B assay relative to control; format: functional; conditions: NCI-H23, 48 h, read-out: Activity
M14 = assay: Growth inhibition of human M14 cells assessed as cell growth at 0.01 uM incubated for 48 hrs by sulforhodamine B assay relative to control; format: functional; conditions: M14, 48 h, read-out: Activity
LOX IMVI = assay: Growth inhibition of human LOXIMVI cells assessed as cell growth at 0.01 uM incubated for 48 hrs by sulforhodamine B assay relative to control; format: functional; conditions: read-out: Activity
K562 = assay: Growth inhibition of human K562 cells incubated for 48 hrs by sulforhodamine B assay; format: functional, cell-based; conditions: K562, 48 h
SR = assay: Growth inhibition of human SR cells assessed as cell growth at 1 uM incubated for 48 hrs by sulforhodamine B assay relative to control; format: functional; conditions: read-out: Activity
CAKI-1 [9] = assay: Growth inhibition of human Caki1 cells assessed as cell growth at 0.01 uM incubated for 48 hrs by sulforhodamine B assay relative to control; format: functional; conditions: CAKI-1, 48 h, read-out: Activity
DU-145 = assay: Growth inhibition of human DU145 cells assessed as cell growth at 0.01 uM incubated for 48 hrs by sulforhodamine B assay relative to control; format: functional; conditions: DU-145, 48 h, read-out: Activity
ACHN [10] = assay: Growth inhibition of human ACHN cells assessed as cell growth at 100 uM incubated for 48 hrs by sulforhodamine B assay relative to control; format: functional; conditions: read-out: Activity
SF-295 = assay: Growth inhibition of human SF295 cells assessed as cell growth at 1 uM incubated for 48 hrs by sulforhodamine B assay relative to control; format: functional; conditions: SF-295, 48 h, read-out: Activity
OVCAR-8 = assay: Growth inhibition of human OVCAR8 cells incubated for 48 hrs by sulforhodamine B assay; format: functional, cell-based; conditions: OVCAR-8, 48 h
CCRF-CEM [11] = assay: Growth inhibition of human CCRF-CEM cells incubated for 48 hrs by sulforhodamine B assay; format: functional, cell-based
CCRF-CEM [12] = assay: Growth inhibition of human CCRF-CEM cells assessed as cell growth at 1 uM incubated for 48 hrs by sulforhodamine B assay relative to control; format: functional; conditions: read-out: Activity
ACHN [13] = assay: Growth inhibition of human ACHN cells assessed as cell growth at 0.1 uM incubated for 48 hrs by sulforhodamine B assay relative to control; format: functional; conditions: read-out: Activity
A498 = assay: Growth inhibition of human A498 cells assessed as cell growth at 100 uM incubated for 48 hrs by sulforhodamine B assay relative to control; format: functional; conditions: A498, 48 h, read-out: Activity
CCRF-CEM [14] = assay: Growth inhibition of human CCRF-CEM cells assessed as cell growth at 0.1 uM incubated for 48 hrs by sulforhodamine B assay relative to control; format: functional; conditions: read-out: Activity
PC-3 = assay: Growth inhibition of human PC3 cells assessed as cell growth at 1 uM incubated for 48 hrs by sulforhodamine B assay relative to control; format: functional; conditions: PC-3, 48 h, read-out: Activity
[15] = read-out: LC50 (the source's name)
[16] = read-out: pLC50 (the source's name) (converted)

O=C(Nc1cccc(-n2cc(-c3ccncc3)c(-c3cc(O)cc(Cl)c3)n2)c1)Nc1ccc(Cl)c(Cl)c1
growth at 1 µM (MCF7 [1]): 91%
growth at 0.01 µM (OVCAR-4): 108%
growth at 0.01 µM (786-0): 92%
GI50 (Hs-578T [2]; read-out: GI50): 3.23 µM
CC50 (Hs-578T [2]; [15]): > 100 µM
TGI (Hs-578T [2]; read-out: TGI): > 100 µM
GI50 (Hs-578T [2]; read-out: pGI50 (converted)): 3.24 µM
CC50 (Hs-578T [2]; [16]): > 100 µM
TGI (Hs-578T [2]; read-out: pTGI (converted)): > 100 µM
growth at 0.1 µM (Hs-578T [3]): 92%
growth at 0.01 µM (UO-31): 93%
growth at 0.1 µM (MDA-MB-468): 85%
growth at 0.01 µM (SN12C): 100%
growth at 100 µM (MCF7 [4]): -2%
growth at 0.1 µM (NCI-H322M): 88%
growth at 100 µM (NCI-H23 [5]): -35%
growth at 0.1 µM (CAKI-1 [6]): 98%
growth at 0.01 µM (SK-OV-3): 108%
growth at 0.01 µM (NCI-H226): 94%
growth at 0.1 µM (MCF7 [7]): 97%
growth at 0.01 µM (SF-268): 94%
growth at 0.1 µM (IGROV-1): 101%
growth at 0.01 µM (NCI-H23 [8]): 96%
growth at 0.01 µM (M14): 99%
growth at 0.01 µM (LOX IMVI): 106%
GI50 (K562; read-out: GI50): 2.56 µM
LC50 (K562; read-out: LC50): > 100 µM
TGI (K562; read-out: TGI): > 100 µM
GI50 (K562; read-out: pGI50 (converted)): 2.57 µM
LC50 (K562; read-out: pLC50 (converted)): > 100 µM
TGI (K562; read-out: pTGI (converted)): > 100 µM
growth at 1 µM (SR): 62%
growth at 0.01 µM (CAKI-1 [9]): 100%
growth at 0.01 µM (DU-145): 108%
growth at 100 µM (ACHN [10]): -33%
growth at 1 µM (SF-295): 77%
GI50 (OVCAR-8; read-out: GI50): 2.02 µM
CC50 (OVCAR-8; [15]): > 100 µM
TGI (OVCAR-8; read-out: TGI): 50.6 µM
GI50 (OVCAR-8; read-out: pGI50 (converted)): 2 µM
CC50 (OVCAR-8; [16]): > 100 µM
TGI (OVCAR-8; read-out: pTGI (converted)): 5.01 µM
GI50 (CCRF-CEM [11]; read-out: GI50): 2.12 µM
CC50 (CCRF-CEM [11]; [15]): > 100 µM
GI50 (CCRF-CEM [11]; read-out: pGI50 (converted)): 2.14 µM
CC50 (CCRF-CEM [11]; [16]): > 100 µM
growth at 1 µM (CCRF-CEM [12]): 76%
growth at 0.1 µM (ACHN [13]): 95%
growth at 100 µM (A498): -79%
growth at 0.1 µM (CCRF-CEM [14]): 95%
growth at 1 µM (PC-3): 72%

COc1cc(Cl)cc(-c2nn(-c3cccc(NC(=O)Nc4cccc(C(F)(F)F)c4)c3)cc2-c2ccncc2)c1
growth at 1 µM (MCF7 [1]): 62%
growth at 0.01 µM (OVCAR-4): 93%
growth at 0.01 µM (786-0): 99%
GI50 (Hs-578T [2]; read-out: GI50): 4.05 µM
CC50 (Hs-578T [2]; [15]): > 100 µM
TGI (Hs-578T [2]; read-out: TGI): > 100 µM
GI50 (Hs-578T [2]; read-out: pGI50 (converted)): 4.07 µM
CC50 (Hs-578T [2]; [16]): > 100 µM
TGI (Hs-578T [2]; read-out: pTGI (converted)): > 100 µM
growth at 0.1 µM (Hs-578T [3]): 93%
growth at 0.01 µM (UO-31): 91%
growth at 0.1 µM (MDA-MB-468): 92%
growth at 0.01 µM (SN12C): 101%
growth at 100 µM (MCF7 [4]): -24%
growth at 0.1 µM (NCI-H322M): 94%
growth at 100 µM (NCI-H23 [5]): -40%
growth at 0.1 µM (CAKI-1 [6]): 104%
growth at 0.01 µM (SK-OV-3): 92%
growth at 0.01 µM (NCI-H226): 95%
growth at 0.1 µM (MCF7 [7]): 102%
growth at 0.01 µM (SF-268): 97%
growth at 0.1 µM (IGROV-1): 96%
growth at 0.01 µM (NCI-H23 [8]): 97%
growth at 0.01 µM (M14): 98%
growth at 0.01 µM (LOX IMVI): 96%
GI50 (K562; read-out: GI50): 0.823 µM
LC50 (K562; read-out: LC50): > 100 µM
TGI (K562; read-out: TGI): 14.4 µM
GI50 (K562; read-out: pGI50 (converted)): 0.832 µM
LC50 (K562; read-out: pLC50 (converted)): > 100 µM
TGI (K562; read-out: pTGI (converted)): 14.5 µM
growth at 1 µM (SR): 55%
growth at 0.01 µM (CAKI-1 [9]): 102%
growth at 0.01 µM (DU-145): 101%
growth at 100 µM (ACHN [10]): -9%
growth at 1 µM (SF-295): 45%
GI50 (OVCAR-8; read-out: GI50): 1.12 µM
CC50 (OVCAR-8; [15]): > 100 µM
TGI (OVCAR-8; read-out: TGI): 45.8 µM
GI50 (OVCAR-8; read-out: pGI50 (converted)): 1.12 µM
CC50 (OVCAR-8; [16]): > 100 µM
TGI (OVCAR-8; read-out: pTGI (converted)): 4.9 µM
GI50 (CCRF-CEM [11]; read-out: GI50): 1.2 µM
CC50 (CCRF-CEM [11]; [15]): > 100 µM
TGI (CCRF-CEM [11]; read-out: TGI): 53.6 µM
GI50 (CCRF-CEM [11]; read-out: pGI50 (converted)): 1.2 µM
CC50 (CCRF-CEM [11]; [16]): > 100 µM
TGI (CCRF-CEM [11]; read-out: pTGI (converted)): 5.37 µM
growth at 1 µM (CCRF-CEM [12]): 56%
growth at 0.1 µM (ACHN [13]): 92%
growth at 100 µM (A498): -6%
growth at 0.1 µM (CCRF-CEM [14]): 97%
growth at 1 µM (PC-3): 27%

Source: ChEMBL document CHEMBL4308841, “Synthesis, in vitro antiproliferative activity, and kinase inhibitory effects of pyrazole-containing diarylureas and diarylamides” (Eur J Med Chem, 2018)
